System: HCV 1b_Huh-Luc/Neo-ET cell line (genotype 1b replicon in Huh 7 cells)
Experiment: HCV replicon assay (luciferase readout)
Type: cell-based
Details: Hepatitis C virus, HCV 1b replicon in Huh 7 cells, 72 h incubation, EC50 range class, read-out: Inhibition of HCV genotype 1b
Method: Biological activity of the compounds of the invention was determined using an HCV replicon assay. The HCV 1b_Huh-Luc/Neo-ET cell line persistently expressing a bicistronic genotype 1b replicon in Huh 7 cells was obtained from ReBLikon GMBH. This cell line was used to test compound inhibition using luciferase enzyme activity readout as a measurement of compound inhibition of replicon levels.
On Day 1 (the day after plating cells), each compound is added in triplicate to the cells. Plates are incubated for 72 h prior to determining luciferase levels. Enzyme activity was measured using a Bright-Glo Kit (cat. number E2620) manufactured by Promega Corporation. The following equation was used to generate a percent control value for each compound. % Control=(Compound Luciferase Level/Control Luciferase Level)*100
The EC50 value was determined using GraphPad Prism and the following equation: Y=Bottom asymptote+(Top asymptote-Bottom asymptote)/(1+10^((Log EC50−X)*HillSlope))
EC50 values of compounds are determined several times in the replicon assay to generate average EC50 values. […]

| Compound | EC50 |
| --- | --- |
| COC(=O)N[C@H](C(=O)N1CCC[C@H]1c1ncc(-c2ccc3c(=O)c4cc(-c5cnc([C@@H]6CCCN6C(=O)[C@@H](NC(=O)OC)C6CCOCC6)[nH]5)ccc4oc3c2)[nH]1)C(C)C [Example 16] | < 1 nM |
| COC(=O)N[C@H](C(=O)N1CCC[C@H]1c1ncc(-c2ccc3c(c2)CCc2ccc(-c4cnc([C@@H]5CCCN5C(=O)[C@@H](NC(=O)OC)C(C)C)[nH]4)cc2O3)[nH]1)C(C)C [Example 12] | < 1 nM |
| COC(=O)N[C@H](C(=O)N1CCC[C@H]1c1ncc(-c2ccc3c(c2)C(C)(C)c2ccc(-c4ccc5nc([C@@H]6CCCN6C(=O)[C@@H](NC(=O)OC)C6CCOCC6)[nH]c5c4)cc2O3)[nH]1)C1CCOCC1 [Compound 149] | < 1 nM |
| COC(=O)N[C@H](C(=O)N1CCC[C@H]1c1ncc(-c2ccc3nc4cc(-c5cnc([C@@H]6CCCN6C(=O)[C@@H](NC(=O)OC)C(C)C)[nH]5)ccc4nc3c2)[nH]1)C(C)C [Example 1] | < 1 nM |
| CC[C@H](C)[C@H](NC(=O)OC)C(=O)N1CCC[C@H]1c1ncc(-c2ccc3c(c2)Cc2ccc(-c4cnc([C@@H]5CCCN5C(=O)[C@@H](NC(=O)OC)[C@@H](C)CC)[nH]4)cc2O3)[nH]1 [Compound 31] | < 1 nM |
| CC[C@H](C)[C@H](NC(=O)OC)C(=O)N1CCC[C@H]1c1ncc(-c2ccc3oc4cc(-c5cnc([C@@H]6CCCN6C(=O)[C@@H](NC(=O)OC)[C@@H](C)CC)[nH]5)c(Cl)cc4c(=O)c3c2)[nH]1 [Compound 51] | < 1 nM |
| COC(=O)N[C@H](C(=O)N1CCC[C@H]1c1ncc(-c2ccc3c(c2)Cc2ccc(-c4cnc([C@@H]5CCCN5C(=O)[C@@H](NC(=O)OC)C5CCCC5)[nH]4)cc2O3)[nH]1)C1CCCC1 [Compound 32] | < 1 nM |
| COC(=O)N[C@H](C(=O)N1CCCC[C@H]1c1ncc(-c2ccc3oc4cc(-c5cnc([C@@H]6CCCN6C(=O)[C@@H](NC(=O)OC)[C@@H](C)OC)[nH]5)ccc4c(=O)c3c2)[nH]1)[C@@H](C)OC [Compound 140] | < 1 nM |
| CC[C@H](C)[C@H](NC(=O)OC)C(=O)N1CCC[C@H]1c1ncc(-c2ccc3c(c2)Cc2cc(Cl)c(-c4cnc([C@@H]5CCCN5C(=O)[C@@H](NC(=O)OC)[C@@H](C)CC)[nH]4)cc2O3)[nH]1 [Compound 63] | < 1 nM |
| O=C(N[C@@H](C(=O)N1CCC[C@H]1c1ncc(-c2ccc3oc4cc(-c5cnc([C@@H]6CCCN6C(=O)[C@H](NC(=O)OC6CCOCC6)c6ccccc6)[nH]5)c(F)cc4c(=O)c3c2)[nH]1)c1ccccc1)OC1CCOCC1 [Example 25] | < 1 nM |
| COC(=O)N[C@H](C(=O)N1CCOC[C@H]1c1ncc(-c2ccc3c(c2)Oc2ccc(-c4cnc([C@@H]5COCCN5C(=O)[C@@H](NC(=O)OC)C(C)C)[nH]4)cc2O3)[nH]1)C(C)C [Compound 64] | < 1 nM |
| COC(=O)N[C@@H](C(=O)N1CCC[C@H]1c1ncc(-c2ccc3c(c2)Cc2cc(-c4cnc([C@@H]5CCCN5C(=O)[C@H](NC(=O)OC)c5ccccc5)[nH]4)ccc2O3)[nH]1)c1ccccc1 [Example 5] | < 1 nM |
| COC(=O)N[C@H](C(=O)N1CCC[C@H]1c1ncc(-c2ccc3c(=O)c4cc(-c5cnc([C@@H]6CCCN6C(=O)[C@@H](NC(=O)OC)C(C)C)[nH]5)ccc4oc3c2)[nH]1)C(C)C [Example 8] | < 1 nM |
| CC[C@H](C)[C@H](NC(=O)OC)C(=O)N1CCC[C@H]1c1ncc(-c2ccc3oc4cc(-c5ccc6nc([C@@H]7CCCN7C(=O)[C@@H](NC(=O)OC)C(C)C)[nH]c6c5)ccc4c(=O)c3c2)[nH]1 [Compound 136] | < 1 nM |
| CC(C)(C)OC(=O)N1CCC[C@H]1c1ncc(-c2ccc3c(=O)c4cc(-c5cnc([C@@H]6CCCN6C(=O)OC(C)(C)C)[nH]5)ccc4oc3c2)[nH]1 [Example 9] | 10 to 999 nM |
| COC(=O)N[C@H](C(=O)N1CCC[C@H]1c1nc2ccc(-c3ccc4c(=O)c5cc(-c6cnc([C@@H]7CCCN7C(=O)[C@@H](NC(=O)OC)[C@@H](C)OC)[nH]6)ccc5oc4c3)cc2[nH]1)C(C)C [Compound 135] | < 1 nM |
| CC[C@H](C)[C@H](NC(=O)OC)C(=O)N1CCC[C@H]1c1ncc(-c2cc3c(cc2F)Cc2cc(-c4cnc([C@@H]5CCCN5C(=O)[C@@H](NC(=O)OC)C5CCOCC5)[nH]4)ccc2O3)[nH]1 [Compound 59] | < 1 nM |
| CC[C@H](C)[C@H](NC(=O)OC)C(=O)N1CCC[C@H]1c1ncc(-c2ccc3c(c2)Oc2ccc(-c4cnc([C@@H]5COCCN5C(=O)[C@@H](NC(=O)OC)[C@@H](C)CC)[nH]4)cc2C3)[nH]1 [Compound 143] | < 1 nM |
| COC(=O)N[C@H](C(=O)N1CCC[C@H]1c1ncc(-c2ccc3oc4cc(-c5cnc([C@@H]6CCCN6C(=O)[C@@H](NC(=O)OC)C6CCOCC6)[nH]5)c(Cl)cc4c(=O)c3c2)[nH]1)C1CCOCC1 [Compound 52] | < 1 nM |

| Compound | EC50 |
| --- | --- |
| COC(=O)N[C@@H](C(=O)N1CSC[C@H]1c1ncc(-c2ccc3c(c2)Oc2ccc(-c4cnc([C@@H]5CSCN5C(=O)[C@H](NC(=O)OC)c5ccccc5)[nH]4)cc2O3)[nH]1)c1ccccc1 [Compound 37] | < 1 nM |
| COC(=O)N[C@H](C(=O)N1CCC[C@H]1c1ncc(-c2ccc3c(c2)Oc2ccc(-c4cnc([C@@H]5CCCN5C(=O)[C@@H](NC(=O)OC)C5CCOCC5)[nH]4)cc2O3)[nH]1)C1CCOCC1 [Compound 35] | < 1 nM |
| COC(=O)N[C@H](C(=O)N1CCC[C@H]1c1ncc(-c2ccc3c(c2)C(C)(C)c2ccc(-c4ccc5nc([C@@H]6CCCN6C(=O)[C@@H](NC(=O)OC)[C@@H](C)OC)[nH]c5c4)cc2O3)[nH]1)[C@@H](C)OC [Compound 146] | < 1 nM |
| CC[C@H](C)[C@H](NC(=O)OC)C(=O)N1CCC[C@H]1c1ncc(-c2ccc3c(c2)Cc2cc(F)c(-c4cnc([C@@H]5CCCN5C(=O)[C@@H](NC(=O)OC)[C@@H](C)OC)[nH]4)cc2O3)[nH]1 [Compound 41] | < 1 nM |
| COC(=O)N[C@H](C(=O)N1CCC[C@H]1c1ncc(-c2ccc3c(c2)Oc2nnc(-c4cnc([C@@H]5CCCN5C(=O)[C@@H](NC(=O)OC)C(C)C)[nH]4)cc2O3)[nH]1)C(C)C [Compound 151] | 1 to 9.9 nM |
| COC(=O)N[C@H](C(=O)N1CCC[C@H]1c1ncc(-c2ccc3c(c2)Oc2ccc(-c4cnc([C@@H]5CSCN5C(=O)[C@@H](NC(=O)OC)C(C)C)[nH]4)cc2C3)[nH]1)C(C)C [Compound 124] | < 1 nM |
| COC(=O)N[C@H](C(=O)N1CCC[C@H]1c1ncc(-c2ccc3oc4cc(-c5cnc([C@@H]6CCCN6C(=O)[C@@H](NC(=O)OC)C(C)C)[nH]5)c(C)cc4c(=O)c3c2)[nH]1)C(C)C [Compound 126] | < 1 nM |
| COC(=O)N[C@H](C(=O)N1CCC[C@H]1c1ncc(-c2ccc3c(c2)c(=O)c2ccc(-c4cnc([C@@H]5CCCN5C(=O)[C@@H](NC(=O)OC)C(C)C)[nH]4)cc2n3C)[nH]1)C(C)C [Example 11] | < 1 nM |
| COC(=O)N[C@@H](C(=O)N1CCC[C@H]1c1ncc(-c2ccc3oc4cc(-c5cnc([C@@H]6CCCN6C(=O)[C@H](NC(=O)OC)c6ccccc6)[nH]5)c(F)cc4c(=O)c3c2)[nH]1)c1ccccc1 [Example 24] | < 1 nM |
| COC(=O)N[C@H](C(=O)N1CCC[C@H]1c1ncc(-c2ccc3c(c2)C(C)(C)c2ccc(-c4ccc5nc([C@@H]6CCCN6C(=O)[C@@H](NC(=O)OC)C(C)C)[nH]c5c4)cc2O3)[nH]1)C(C)C [Compound 133] | < 1 nM |
| COC(=O)N[C@@H](C(=O)N[C@@H](C)c1ncc(-c2ccc3c(c2)Oc2ccc(-c4cnc([C@H](C)NC(=O)[C@H](NC(=O)OC)c5ccccc5)[nH]4)cc2O3)[nH]1)c1ccccc1 [Compound 38] | < 1 nM |
| COC(=O)N[C@H](C(=O)N1CCC[C@H]1c1ncc(-c2ccc3c(c2)Cc2ccc(-c4cnc([C@@H]5CCCN5C(=O)[C@@H](NC(=O)OC)[C@@H](C)OC)[nH]4)cc2O3)[nH]1)[C@@H](C)OC [Compound 30] | < 1 nM |
| COC(=O)N[C@H](C(=O)N1CCC[C@H]1c1ncc(-c2ccc3c(=O)c4cc(-c5cnc([C@@H]6CSCN6C(=O)[C@@H](NC(=O)OC)[C@@H](C)OC)[nH]5)ccc4oc3c2)[nH]1)[C@@H](C)OC [Compound 120] | < 1 nM |
| COC(=O)N[C@H](C(=O)N1CSC[C@H]1c1ncc(-c2ccc3c(c2)Oc2ccc(-c4cnc([C@@H]5CSCN5C(=O)[C@@H](NC(=O)OC)C5CCCC5)[nH]4)cc2O3)[nH]1)C1CCCC1 [Compound 66] | < 1 nM |
| CC[C@H](C)[C@H](NC(=O)OC)C(=O)N1CCC[C@H]1c1ncc(-c2ccc3c(c2)Cc2cc(F)c(-c4cnc([C@@H]5CCCN5C(=O)[C@@H](NC(=O)OC)[C@@H](C)CC)[nH]4)cc2O3)[nH]1 [Compound 53] | < 1 nM |
| CC[C@H](C)[C@H](NC(=O)OC)C(=O)N1CCC[C@H]1c1ncc(-c2ccc3c(=O)c4cc(-c5cnc([C@@H]6CSCN6C(=O)[C@@H](NC(=O)OC)[C@@H](C)CC)[nH]5)ccc4oc3c2)[nH]1 [Compound 123] | < 1 nM |
| CC[C@H](C)[C@H](NC(=O)OC)C(=O)N1CCC[C@H]1c1ncc(-c2ccc3c(c2)Oc2ccc(-c4cnc([C@@H]5CSCN5C(=O)[C@@H](NC(=O)OC)[C@@H](C)CC)[nH]4)cc2C3)[nH]1 [Compound 125] | < 1 nM |
| [2H]C([2H])([2H])C([2H])(C([2H])([2H])[2H])[C@]([2H])(NC(=O)OC)C(=O)N1CCC[C@H]1c1ncc(-c2ccc3c(c2)C(C)(C)c2ccc(-c4ccc5nc([C@@H]6CCCN6C(=O)[C@@]([2H])(NC(=O)OC)C([2H])(C([2H])([2H])[2H])C([2H])([2H])[2H])[nH]c5c4)cc2O3)[nH]1 [Compound 147] | < 1 nM |
| COC(=O)N[C@H](C(=O)N1CCC[C@H]1c1ncc(-c2ccc3oc4cc(-c5cnc([C@@H]6CCCN6C(=O)[C@@H](NC(=O)OC)C(C)C)[nH]5)c(F)cc4c(=O)c3c2)[nH]1)C(C)C [Example 22] | < 1 nM |
